Results taken from US20080045514A1 (Cytovia, Inc., priority 2006, published 2008).

Legend:
Format in all cases: cell-based
[1] = system: human cancer cell line H1299; experiment: Caspase cascade activation (EC50), H1299; conditions: NCI-H1299, H1299 cells, read-out: caspase potency (EC50) H1299
Description: (§1) Human breast cancer cell lines T-47D, human hepatocellular carcinoma cell line SNU398, human colon carcinoma cell line HCT116, human cancer cell line H1299, human Burkitt's lymphoma cell line Namalwa, human lymphoma cell line Raji, and human B cell lymphoblastoid cell line Ramos were grown according to media component mixtures designated by American Type Culture Collection+10% FCS (Invitrogen Corporation), in a 5% CO2-95% humidity incubator at 37° C. T-47D and H1299 cells were maintained at a cell density between 50 and 80% confluency at a cell density of 0.1 to 0.6×10^6 cells/mL. Cells were harvested at 600×g and resuspended at 0.65×10^6 cells/mL into appropriate media+10% FCS. An aliquot of 22.5 μL of cells was added to a well of a 384-well microtiter plate containing 2.5 μL of a 10% DMSO in RPMI-1640 media solution containing 0.16 to 100 μM of 3-(2-chlorophenyl)-6-(3,4-methylenedioxyphenyl)-7H-[1,2,4]triazolo[3,4-b][1,3,4]thiadiazine or other test compound (0.016 to 10 μM final). An aliquot of 22.5 μL of cells was added to a well of a 384-well microtiter plate containing 2.5 μL of a 10% DMSO in RPMI-1640 media solution without test compound as the control sample. The samples were mixed by agitation and then incubated at 37° C. for 48 h in a 5% CO2-95% humidity incubator. After incubation, the samples were removed from the incubator and 25 μL of a solution containing 14 μM of N—(Ac-DEVD)-N′-ethoxycarbonyl-R110 (SEQ ID No.:1) fluorogenic substrate (Cytovia, Inc.; WO99/18856), 20% sucrose (Sigma), 20 mM DTT (Sigma), 200 mM NaCl (Sigma), 40 mM Na PIPES buffer pH 7.2 (Sigma), and 500 μg/mL lysolecithin (Calbiochem) was added. The samples were mixed by agitation and incubated at room temperature. Using a fluorescent plate reader (Model SPECTRAfluor Plus, Tecan), an initial reading (T=0) was made approximately 1-2 min after addition of the substrate solution, employing excitation at 485 nm and emission at 530 nm, to determine the background fluorescence of the control sample. After the 3 h incubation, the samples were read for fluorescence as above (T=3 h). Calculation: The Relative Fluorescence Unit values (RFU) were used to calculate the sample readings as follows: RFU(T=3H)−Control RFU(T=0)=Net RFU(T=3h) The activity of caspase cascade activation was determined by the ratio of the net RFU value for 3-(2-chlorophenyl)-6-(3,4-methylenedioxyphenyl)-7H-[1,2,4]triazolo[3,4-b][1,3,4]thiadiazine (Example P) or other test compound to that of control samples. The EC50 (nM) was determined by a sigmoidal dose-response calculation (Prism 3.0, GraphPad Software Inc.).

[2] = system: human breast cancer cell line T-47D; experiment: Caspase cascade activation (EC50), T-47D; conditions: Homo sapiens; T47D cells; caspase cascade activation; read-out: caspase potency (EC50) T47D
Method in brief: (§2)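 Cells in ATCC medium plus 10% FCS, seeded at 0.65×10^6 cells/mL, incubated with compound at 0.016 to 10 μM final, 48 h, 37 °C. Lysis-substrate buffer (14 μM DEVD-R110, 20 mM DTT, pH 7.2, lysolecithin) added; fluorescence read after 3 h at room temperature.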

[3] = system: human B cell lymphoblastoid cell line Ramos; experiment: Caspase cascade activation (EC50), Ramos; conditions: Homo sapiens, RAMOS cells, read-out: caspase potency (EC50) RAMOS
Description: as §1

[4] = system: human Burkitt's lymphoma cell line Namalwa; experiment: Caspase cascade activation (EC50), Namalwa; conditions: Homo sapiens, Burkitts lymphoma cell; Namalwa cells; caspase cascade activation; read-out: caspase potency (EC50) Namalwa
Method in brief: as §2

[5] = system: human hepatocellular carcinoma cell line SNU398; experiment: Caspase cascade activation (EC50), SNU398; conditions: Homo sapiens, SNU-398; SNU398 cells; caspase cascade activation; read-out: caspase potency (EC50) SNU398
Method in brief: as §2

[6] = system: human lymphoma cell line Raji; experiment: Caspase cascade activation (EC50), Raji; conditions: Homo sapiens, RAJI cells, read-out: caspase potency (EC50) RAJI
Description: as §1

[7] = system: human colon carcinoma cell line HCT116; experiment: Caspase cascade activation (EC50), HCT116; conditions: Homo sapiens, HCT-116; HCT116 cells; caspase cascade activation; read-out: caspase potency (EC50) HCT116
Method in brief: as §2

| EC50 [1] [nM] | EC50 [2] [nM] | EC50 [3] [nM] | EC50 [4] [nM] | EC50 [5] [nM] | EC50 [6] [nM] | EC50 [7] [nM] | SMILES |
| --- | --- | --- | --- | --- | --- | --- | --- |
| 2730 | 2420 |  |  |  |  |  | COc1ccc(C2=Nn3c(nnc3-c3ccc(C)cc3)SC2)cc1OC [A, 3-(4-Methylphenyl)-6-(3,4-dimethoxyphenyl)-7H-[1,2,4]triazolo[3,4-b][1,3,4]thiadiazine] |
| 2100 | 1880 |  |  |  |  |  | COc1ccc(C2=Nn3c(nnc3-c3ccc(Cl)cc3)SC2)cc1OC [E, 3-(4-Chlorophenyl)-6-(3,4-dimethoxyphenyl)-7H-[1,2,4]triazolo[3,4-b][1,3,4]thiadiazine] |
| 2490 | 500 | 447 | 426 | 390 | 507 | 546 | COc1cccc(-c2nnc3n2N=C(c2ccc4c(c2)OCO4)CS3)c1 [Example A1, 3-(3-Methoxyphenyl)-6-(3,4-methylenedioxyphenyl)-7H-[1,2,4]triazolo[3,4-b][1,3,4]thiadiazine] |
| 1710 | 1420 |  |  | 930 |  | 1310 | COc1cccc(-c2nnc3n2N=C(c2ccc4ccccc4c2)CS3)c1 [Example B1, 3-(3-Methoxyphenyl)-6-(2-naphthyl)-7H-[1,2,4]triazolo[3,4-b][1,3,4]thiadiazine] |
| 106 | 175 |  | 106 | 30 |  | 40 | CCOc1ccc(C2=Nn3c(nnc3-c3ccccc3OC)SC2)cc1 [Example B2, 3-(2-Methoxyphenyl)-6-(4-ethoxyphenyl)-7H-[1,2,4]triazolo[3,4-b][1,3,4]thiadiazine] |
| 2710 | 2300 |  |  | 778 |  | 1500 | CCOc1cccc(-c2nnc3n2N=C(c2ccc(OC)cc2)CS3)c1 [Example D1, 3-(3-Ethoxyphenyl)-6-(4-methoxyphenyl)-7H-[1,2,4]triazolo[3,4-b][1,3,4]thiadiazine] |
| 2640 | 2580 |  |  |  |  |  | CCOc1ccc(-c2nnc3n2N=C(c2ccc(O)c(O)c2)CS3)cc1 [Example F1, 3-(4-Ethoxyphenyl)-6-(3,4-dihydroxyphenyl)-7H-[1,2,4]triazolo[3,4-b][1,3,4]thiadiazine] |
| 2010 | 553 |  |  | 41 |  | 161 | CCOc1ccc(C2=Nn3c(nnc3-c3ccc(Cl)cc3Cl)SC2)cc1 [Example H1, 3-(2,4-Dichlorophenyl)-6-(4-ethoxyphenyl)-7H-[1,2,4]triazolo[3,4-b][1,3,4]thiadiazine] |
| > 1000 | > 1000 | 542 | > 1000 | > 1000 | > 1000 | > 1000 | CCOc1ccc(-c2nnc3n2N=C(c2ccc4c(c2)OCO4)CS3)cc1 [Example H2, 3-(4-Ethoxyphenyl)-6-(3,4-methylenedioxyphenyl)-7H-[1,2,4]triazolo[3,4-b][1,3,4]thiadiazine] |
| 1380 | 278 | 150 | 221 | 172 | 171 | 254 | Clc1ccc(-c2nnc3n2N=C(c2ccc4c(c2)OCO4)CS3)c(Cl)c1 [Example I1, 3-(2,4-Dichlorophenyl)-6-(3,4-methylenedioxyphenyl)-7H-[1,2,4]triazolo[3,4-b][1,3,4]thiadiazine] |
| 2590 | 2870 |  |  |  |  |  | Clc1ccc(-c2nnc3n2N=C(c2ccccc2)CS3)c(Cl)c1 [Example J1, 3-(2,4-Dichlorophenyl)-6-phenyl-7H-[1,2,4]triazolo[3,4-b][1,3,4]thiadiazine] |
|  | 145 | 39 | 40 | 42 | 65 | 65 | COc1cc(-c2nnc3n2N=C(c2ccc(Br)cc2)CS3)cc(OC)c1OC [Example U1, 3-(3,4,5-Trimethoxyphenyl)-6-(4-bromophenyl)-7H-[1,2,4]triazolo[3,4-b][1,3,4]thiadiazine] |
|  | 1320 | 463 | 321 | 1040 | 622 | > 10000 | COc1cc(-c2nnc3n2N=C(c2ccc(F)cc2)CS3)cc(OC)c1OC [Example V1, 3-(3,4,5-Trimethoxyphenyl)-6-(4-fluorophenyl)-7H-[1,2,4]triazolo[3,4-b][1,3,4]thiadiazine] |
|  | 276 | 78 | 153 | 111 | 72 | 130 | COc1cc(-c2nnc3n2N=C(c2ccc(Cl)cc2)CS3)cc(OC)c1OC [Example W1, 3-(3,4,5-Trimethoxyphenyl)-6-(4-chlorophenyl)-7H-[1,2,4]triazolo[3,4-b][1,3,4]thiadiazine] |
|  | 2640 | 2510 | 2510 | 2650 | 3410 | 2480 | COc1cc(-c2nnc3n2N=C(c2cccc(Br)c2)CS3)cc(OC)c1OC [Example X1, 3-(3,4,5-Trimethoxyphenyl)-6-(3-bromophenyl)-7H-[1,2,4]triazolo[3,4-b][1,3,4]thiadiazine] |
|  | 556 | 99 | 139 | 81 | 127 | 119 | COc1cc(-c2nnc3n2N=C(c2ccc4ccccc4c2)CS3)cc(OC)c1OC [Example Y1, 3-(3,4,5-Trimethoxyphenyl)-6-(2-naphthyl)-7H-[1,2,4]triazolo[3,4-b][1,3,4]thiadiazine] |
|  | 284 | 219 | 200 | 101 | 176 | 240 | COc1cc(-c2nnc3n2N=C(c2ccc(O)c(O)c2)CS3)cc(OC)c1OC [Example Z1, 3-(3,4,5-Trimethoxyphenyl)-6-(3,4-dihydroxyphenyl)-7H-[1,2,4]triazolo[3,4-b][1,3,4]thiadiazine] |
| 1820 | 2490 |  |  | 1010 |  | 1580 | CCOc1ccc(C2=Nn3c(nnc3-c3ccc(OC)cc3)SC2)cc1 [I, 3-(4-Methoxyphenyl)-6-(4-ethoxyphenyl)-7H-[1,2,4]triazolo[3,4-b][1,3,4]thiadiazine] |
| 1000 | 1340 |  |  | 129 |  | 279 | CCOc1ccc(C2=Nn3c(nnc3-c3ccccc3Cl)SC2)cc1 [O, 3-(2-Chlorophenyl)-6-(4-ethoxyphenyl)-7H-[1,2,4]triazolo[3,4-b][1,3,4]thiadiazine] |
| 5140 | 5350 |  |  |  |  |  | Clc1ccccc1-c1nnc2n1N=C(c1ccc(Br)cc1)CS2 [Q, 3-(2-Chlorophenyl)-6-(4-bromophenyl)-7H-[1,2,4]triazolo[3,4-b][1,3,4]thiadiazine] |
| 3570 | 5540 |  |  |  |  |  | Cc1cccc(-c2nnc3n2N=C(c2ccc4ccccc4c2)CS3)c1 [U, 3-(3-Methylphenyl)-6-(2-naphthyl)-7H-[1,2,4]triazolo[3,4-b][1,3,4]thiadiazine] |
| 2330 | 2810 |  |  | 331 |  | 693 | CCOc1ccc(C2=Nn3c(nnc3-c3cccc(OC)c3)SC2)cc1 [Z, 3-(3-Methoxyphenyl)-6-(4-ethoxyphenyl)-7H-[1,2,4]triazolo[3,4-b][1,3,4]thiadiazine] |
